One data set has as its system S. aureus (ATCC BAA-44). The note with it: ATCC BAA-44, 18 h.
For data set [1], the system named is E. Coli (D31). Particulars: read-out: IC50 E. coli; 50% inhibition of growth, 18 h; mean of three experiments.
Data set [2] concerns fresh sheep erythrocytes. Type of data set: cell-based. Particulars: pH 7.2. How it is done:
Hemolytic activity of model peptides was assessed on fresh sheep erythrocytes (Fitzgerald Inc., Concord, Mass.). Peptide concentrations yielding 50% hemolysis were used as hemolytic dose (HD50) determined from dose-response curves (Oren, Z., and Y. Shai. 1997. Selective lysis of bacteria but not mammalian cells by diastereomers of melittin: Structure-function study. Biochem. 36:1826-1835). […] The resulting supernatant was diluted by a factor of 40 in distilled water. The absorbances of the supernatant at λ=540 nm (OD540) were measured in the UV Spectrophotometer. Zero hemolysis and 100% hemolysis controls were obtained by incubating the cells with buffer and 1% Triton-X, respectively. Hemolytic index (HI) was defined as HI=HD50/IC50.

The next data set concerns HIV. Put plainly: Inhibition of HIV infectivity by gp340-derived peptides. Type of data set: cell-based. Particulars: peptide concentrations up to 10 ug/ml.
The test system of data set [3] is HIV-1 gp120MN V3 peptide P6283. The note with it: Ca++-dependent, ELISA.
The test system of a further data set is HIV-1 IIIB. Put plainly: HIV inhibition assay, p24 readout.
For a further data set, the system named is HIV-1 NL4-3. Put plainly: HIV inhibition assay, p24 readout. The note with it: H9 cells, p24 in culture supernatant.
The subject of data set [4] is HIV-1 attachment to and infection of H9 cells. Put plainly: Viral attachment assay. The class given is cell-based. Particulars: for cell-associated virus (HIV-1 attachment to target cells): H9 cells, cell-associated p24 after virus exposure. The method, then: FIG. 8. Effect of gp-340 or N-SRCR on HIV-1 attachment and infection of cells. The H9 cells were treated with increasing concentrations of gp-340 (A and B) or N-SRCR (C) before and during HIV-1 exposure. After 4 hours, the cells were extensively washed of virus and either treated with or without trypsin at room temperature for 10 min and lysed for total cell-associated p24 measurement or re-fed with fresh medium to continue culture for 4 days to determine infection (data only for gp-340 shown). The values were average of triplicate wells and bars represent standard errors.
0.5×10^6 H9 cells were pre-incubated with purified gp-340 ranging from 2 to 10 μg/ml, or N-SRCR at 0.5 μg/ml at 37° C. for 60 min before viral exposure at 50 ng/ml p24 at 37° C. for 3 hours. The exposed cells were washed repeatedly to remove unbound virus, either lysed for cell-associated viral p24 measurement, treated with trypsin for 5 min before lysis, or refed with culture medium and maintained in culture for an additional 4 days. Culture medium was collected, cleared of cellular debris, lysed and viral p24 was measured.

The next data set deals with HIV-1 BaL. Put plainly: HIV inhibition assay, p24 readout. The note with it: IL-2 stimulated human PBMCs, p24 in culture supernatant.
For data set [5], the system named is B. anthracis (Sterne 34F2). Particulars: mean of three experiments.
Data set [6] deals with E. Coli (D31).
For data set [7], the system named is fresh sheep erythrocytes. Put plainly: Hemolysis assay HD50 (Examples 1B and 2). Type of data set: cell-based. The note with it: red cells of sheep. How it is done: Stock solutions of samples were prepared by the same procedure as in antibacterial assays. Hemolytic activity of monomeric peptides and multivalent ones were assessed on fresh sheep erythrocytes (Fitzgerald, Inc., MA) in 35 mM PBS buffer, 150 mM NaCl, pH 7.0. Peptide concentrations corresponding to 50% hemolysis were used as hemolytic dose (HD50) determined from dose-response curve (National Committee for Clinical Laboratory Standards. 2004, Methods for dilution antimicrobial susceptibility tests for bacteria that grow aerobically; sixth edition, approved standard M100-S14. National Committee for Clinical Laboratory Standards. Wayne, Pa.). Aliquots of cell suspension were mixed in eppendorf tubes with varying volumes of stocks and buffer for a total volume of 1 mL. Solutions containing same volume of DMSO without samples were used as control. These tubes were incubated at 37° C. for 1 hr, and then spun down at 3,000 rpm for 5 mins. The resulting supernatant was diluted by a factor of 40 in distilled water. The absorbances of the dilutions at 540 nm were measured in the Genesys 5 Spectrophotometer (Thermo Spectronic, Inc., NY). Zero hemolysis and 100% hemolysis controls were obtained by incubating the cells with buffer and 20% Tween, respectively. Hemolytic index (HI) was defined as HI=HD50/IC50. […]

The test system of a further data set is S Aureus (ATCC BAA-44). Particulars: mean of three experiments.
The next data set concerns the target gp120 (Human immunodeficiency virus type 1 group M subtype B, UniProt P03375). The note with it: read-out: Kd of gp340 binding to gp120; earlier studies of the applicants.
Where [8] appears, read: H9 cells, p24 in culture supernatant.

Where a SMILES comes first, the peptide text is derived from it. Bridges are numbered along the chain shown (N, C = ends). Roman numbers before positions name the chains, in order. Where no end group is shown, it is not given here. Side-chain parts run from the residue outwards. [ ]: non-standard residue; d: D form. βAla = NCCC(=O)O

As usually defined, the IC50 is the concentration that inhibits the measured activity by half. Broadly, the Kd is the free concentration of one partner at which half of the binding sites on the other are occupied at equilibrium, for simple one-to-one binding.

For `N=C(N)NCCC[C@H](NC(=O)[C@H](Cc1c[nH]c2ccccc12)NC(=O)[C@@H](N)CCCNC(=N)N)C(=O)N[C@@H](Cc1c[nH]c2ccccc12)C(N)=O` [(RW)2—NH2] (H-RWRW-NH2), the IC50 amounted to 210 µM in the data set on S. aureus (ATCC BAA-44) and 730 µM in the data set on E. Coli (D31) [1]. The “HD50 Red blood cell” value in the data set on fresh sheep erythrocytes [2] came to 3700 µM.

Turning to RWRWRW-NH2 [(RW)3—NH2], the IC50 with S. aureus (ATCC BAA-44) worked out at 8 µM; in the data set with E. Coli (D31) [1], 16 µM. Besides, the “HD50 Red blood cell” value in the data set on fresh sheep erythrocytes [2] was found to be 210 µM.

With GRVEYLXBGSW (GRVEVLYRGSW) [11 mer], in the data set with HIV, the “inhibition of HIV infectivity (anti-HIV activity)” value is given as “low, but measurable anti-HIV activity”.

In the case of “N-SRCR: recombinant N-terminal gp340 fragment: first SRCR domain and half of first SID, with His-6 and HSV gD tags, 35 kDa”, the “binding to the peptide P6283” value in [3] was “comparable to binding of gp-340”. In the data set on HIV-1 IIIB (setting [8]), the “ID75 for IIIB” value is 2 µg/mL and the “ID90 for IIIB” value is “not achieved”. The “concentration not toxic to H9 cells” value in the data set with H9 cells is “up to 10 μg/ml”. Moreover, the “estimated ID90 for NL4-3” value in the data set on HIV-1 NL4-3 is 1.5 µg/mL. The “cell-associated virus (HIV-1 attachment to target cells)” value in data set [4] was “did not effect viral attachment”. Further, the “binding to immobilized gp120” value with HIV-1 gp120 (gp120 captured with antibody D7324, ELISA) was “shown to bind immobilized gp120”. In addition, the “binding to gp120 upon sCD4 treatment of gp120” value in the data set on HIV-1 gp120 (sCD4 pre-binding, detected by Ab-1527) is given as “significantly increased”. In addition, the “estimated ID90 for BaL” value in the data set on HIV-1 BaL is 1.1 µg/mL.

Turning to RWRWRWRW-NH2 [(RW)4—NH2], the IC50 in the data set with S. aureus (ATCC BAA-44) worked out at 5.1 µM; in the data set with E. Coli (D31) [1], 9.6 µM. Besides, the “HD50 Red blood cell” value with fresh sheep erythrocytes [2] amounted to 100 µM.

Regarding `N=C(N)NCCC[C@H](NC(=O)[C@H](Cc1c[nH]c2ccccc12)NC(=O)[C@H](CCCNC(=N)N)NC(=O)[C@H](Cc1c[nH]c2ccccc12)NC(=O)[C@H](CCCNC(=N)N)NC(=O)[C@H](Cc1c[nH]c2ccccc12)NC(=O)[C@H](CCCNC(=N)N)NC(=O)[C@H](Cc1c[nH]c2ccccc12)NC(=O)[C@@H](N)CCCNC(=N)N)C(=O)N[C@@H](Cc1c[nH]c2ccccc12)C(N)=O` [(RW)5—NH2], the concentration for half-maximal inhibition (IC50) came to 3.6 µM in the data set with S. aureus (ATCC BAA-44) and 6.2 µM in the data set with E. Coli (D31) [1]. In the data set with fresh sheep erythrocytes [2], the “HD50 Red blood cell” value came to 76 µM.

Consider QGRVEVLYRGSWGEVC [16 mer], for which the “inhibition of HIV infectivity (anti-HIV activity)” value in the data set on HIV is given as “only modest inhibition of HIV infectivity”.

Take `CC(=O)N[C@@H](Cc1c[nH]c2ccccc12)C(=O)N[C@@H](CCCNC(=N)N)C(=O)N[C@@H](Cc1c[nH]c2ccccc12)C(=O)N[C@@H](CCCNC(=N)N)C(=O)NCCCC[C@H](NC(=O)[C@H](CCCNC(=N)N)NC(=O)[C@H](Cc1c[nH]c2ccccc12)NC(=O)[C@H](CCCNC(=N)N)NC(=O)[C@H](Cc1c[nH]c2ccccc12)NC(C)=O)C(=O)NCCCC[C@H](NC(=O)[C@H](CCCCNC(=O)[C@H](CCCNC(=N)N)NC(=O)[C@H](Cc1c[nH]c2ccccc12)NC(=O)[C@H](CCCNC(=N)N)NC(=O)[C@H](Cc1c[nH]c2ccccc12)NC(C)=O)NC(=O)[C@H](CCCNC(=N)N)NC(=O)[C@H](Cc1c[nH]c2ccccc12)NC(=O)[C@H](CCCNC(=N)N)NC(=O)[C@H](Cc1c[nH]c2ccccc12)NC(C)=O)C(=O)NCCC(N)=O` [(Ac—WRWR)4-lys2-Lys-Beta-Ala-NH2] (I: Ac-WRWRK([Arg-Trp-Arg-Trp-Ac])K[βAla]-NH2 / II: Ac-WRWRK([Arg-Trp-Arg-Trp-Ac]); amide I:6-II:C): the results for the “Antimicrobial activity IC50” value (in data set [5]; in the data set on E. Coli (D31) [6]; in the data set with S Aureus (ATCC BAA-44)) were 15.5 µg/mL, 9.5 µg/mL and 12.5 µg/mL, respectively. Besides, the “Hemolytic activity HD50” value in the data set with fresh sheep erythrocytes [7] is 137 µg/mL.

`N=C(N)NCCC[C@H](N)C(=O)N[C@@H](Cc1c[nH]c2ccccc12)C(N)=O` [RW—NH2] (H-Arg-Trp-NH2): the IC50 in the data set on S. aureus (ATCC BAA-44) turned out to be 2100 µM; in the data set on E. Coli (D31) [1], 4300 µM. The “HD50 Red blood cell” value in the data set on fresh sheep erythrocytes [2] was 8900 µM.

Take “gp340: 340 kDa salivary agglutinin glycoprotein of the SRCR superfamily; recombinant or purified from saliva”: the “blocking HIV-1 infection by expressed full length gp340” value with HIV-1 IIIB (culture supernatant of transfected 293 cells, compared with SAG from saliva) is on record as “as active in blocking HIV-1 infection as SAG purified from human saliva”. For the same compound, the dissociation constant (Kd) in the data set with gp120 worked out at 0.0058 µM. For the same compound, in data set [4] (H9 cells cultured 4 days after exposure, p24), the “viral replication in the treated cells” value is “significantly inhibited”. Also, the “cell-associated virus (HIV-1 attachment to target cells)” value in data set [4] is listed as “not affected”.
